From article PMC10599993, “The PTPN2/PTPN1 inhibitor ABBV-CLS-484 unleashes potent anti-tumour immunity” (Nature, 2023)

How the values were obtained:
Experiment in all cases: biochemical
Design in all cases: Kinase selectivity panel, IC50 of AC484 (Supplementary Table 1)
PKCzeta = target: T1, PKCzeta (Homo sapiens, UniProt Q05513)
T1 construct: gene PRKCZ

CAMK2A = CAMK2A (Homo sapiens, UniProt Q9UQM7)
Aurora 1 = target: T2, Aurora 1 (Homo sapiens, UniProt Q96GD4)
T2 construct: gene AURKB

CSK = CSK (Homo sapiens, UniProt P41240)
Chain of CSK (P41240 whole entry): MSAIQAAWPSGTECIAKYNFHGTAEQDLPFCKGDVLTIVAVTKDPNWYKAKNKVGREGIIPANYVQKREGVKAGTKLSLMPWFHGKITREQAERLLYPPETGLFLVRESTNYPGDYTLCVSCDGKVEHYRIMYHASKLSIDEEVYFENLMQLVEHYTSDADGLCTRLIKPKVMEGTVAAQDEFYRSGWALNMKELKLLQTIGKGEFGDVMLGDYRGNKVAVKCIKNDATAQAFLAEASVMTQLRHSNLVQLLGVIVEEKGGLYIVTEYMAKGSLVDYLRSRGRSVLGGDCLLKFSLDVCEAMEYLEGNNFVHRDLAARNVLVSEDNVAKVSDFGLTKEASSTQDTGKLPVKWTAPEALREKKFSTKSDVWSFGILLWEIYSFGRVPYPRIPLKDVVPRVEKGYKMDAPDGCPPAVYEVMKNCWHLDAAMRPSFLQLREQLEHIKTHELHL

PKC alpha-UBI = target: T3, PKC alpha-UBI (Homo sapiens, UniProt P17252)
T3 construct: gene PRKCA

TAK1-TAB1 = target: T4, TAK1-TAB1 (Homo sapiens, UniProt O43318)
T4 construct: gene MAP3K7
T4 sequence (O43318 whole entry): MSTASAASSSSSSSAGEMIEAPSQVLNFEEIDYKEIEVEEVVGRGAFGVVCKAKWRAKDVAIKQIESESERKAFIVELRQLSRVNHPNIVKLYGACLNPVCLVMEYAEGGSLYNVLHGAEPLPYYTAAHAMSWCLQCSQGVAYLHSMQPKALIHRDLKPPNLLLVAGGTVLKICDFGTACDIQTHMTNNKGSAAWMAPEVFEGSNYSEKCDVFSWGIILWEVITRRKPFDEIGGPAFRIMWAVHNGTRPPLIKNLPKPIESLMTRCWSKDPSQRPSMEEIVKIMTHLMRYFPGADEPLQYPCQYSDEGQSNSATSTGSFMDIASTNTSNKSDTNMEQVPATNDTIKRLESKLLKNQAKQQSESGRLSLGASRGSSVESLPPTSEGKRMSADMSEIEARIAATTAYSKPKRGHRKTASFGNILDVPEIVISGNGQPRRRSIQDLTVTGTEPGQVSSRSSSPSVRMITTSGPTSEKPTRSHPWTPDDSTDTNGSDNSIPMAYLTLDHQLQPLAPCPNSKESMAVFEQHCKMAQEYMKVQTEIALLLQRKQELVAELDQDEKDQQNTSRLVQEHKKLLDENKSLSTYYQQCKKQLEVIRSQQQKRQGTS
T4 sequence (Q15750 whole entry partner): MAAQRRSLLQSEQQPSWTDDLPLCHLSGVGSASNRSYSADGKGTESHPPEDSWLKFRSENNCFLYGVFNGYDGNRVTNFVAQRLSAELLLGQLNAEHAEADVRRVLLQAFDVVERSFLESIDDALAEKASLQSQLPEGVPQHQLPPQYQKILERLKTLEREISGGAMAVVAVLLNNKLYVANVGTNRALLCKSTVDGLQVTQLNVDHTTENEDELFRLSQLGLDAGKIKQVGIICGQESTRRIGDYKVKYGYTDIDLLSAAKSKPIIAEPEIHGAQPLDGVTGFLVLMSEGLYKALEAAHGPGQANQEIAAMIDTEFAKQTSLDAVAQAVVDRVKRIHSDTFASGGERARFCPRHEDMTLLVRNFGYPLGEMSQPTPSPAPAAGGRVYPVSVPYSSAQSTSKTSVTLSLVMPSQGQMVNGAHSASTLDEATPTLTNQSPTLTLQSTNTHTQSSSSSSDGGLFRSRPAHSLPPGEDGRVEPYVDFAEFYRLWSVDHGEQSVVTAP

CAMKK2 = CAMKK2 (Homo sapiens, UniProt Q96RR4)
Chain of CAMKK2 (Q96RR4 whole entry): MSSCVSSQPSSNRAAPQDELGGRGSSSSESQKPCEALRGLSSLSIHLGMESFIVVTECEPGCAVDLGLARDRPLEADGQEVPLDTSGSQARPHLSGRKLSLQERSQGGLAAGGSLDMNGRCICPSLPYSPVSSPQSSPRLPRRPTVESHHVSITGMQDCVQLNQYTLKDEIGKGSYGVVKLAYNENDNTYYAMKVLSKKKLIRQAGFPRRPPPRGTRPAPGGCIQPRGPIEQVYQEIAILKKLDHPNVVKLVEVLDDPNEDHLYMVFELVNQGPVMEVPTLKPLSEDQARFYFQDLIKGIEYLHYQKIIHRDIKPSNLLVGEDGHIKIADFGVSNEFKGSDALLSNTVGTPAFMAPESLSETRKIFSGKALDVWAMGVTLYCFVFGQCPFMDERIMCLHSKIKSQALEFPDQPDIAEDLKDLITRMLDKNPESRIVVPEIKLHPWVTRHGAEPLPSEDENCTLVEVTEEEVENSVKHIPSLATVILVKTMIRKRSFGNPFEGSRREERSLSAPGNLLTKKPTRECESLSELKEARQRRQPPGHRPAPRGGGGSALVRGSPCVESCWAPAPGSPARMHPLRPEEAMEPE

MAP4K2 = MAP4K2 (Homo sapiens, UniProt Q12851)

Measured: IC50

T2 sequence (Q96GD4 whole entry): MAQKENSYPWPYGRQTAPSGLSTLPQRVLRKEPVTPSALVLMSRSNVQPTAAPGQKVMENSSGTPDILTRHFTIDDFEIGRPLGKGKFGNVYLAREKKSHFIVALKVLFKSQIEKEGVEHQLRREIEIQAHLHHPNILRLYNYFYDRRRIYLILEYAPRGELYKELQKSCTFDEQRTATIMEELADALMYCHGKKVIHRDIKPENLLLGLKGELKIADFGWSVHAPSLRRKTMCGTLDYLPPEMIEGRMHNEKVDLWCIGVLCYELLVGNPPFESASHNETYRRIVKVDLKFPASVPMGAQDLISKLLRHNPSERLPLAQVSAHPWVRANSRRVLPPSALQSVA
Chain of CAMK2A (Q9UQM7 whole entry): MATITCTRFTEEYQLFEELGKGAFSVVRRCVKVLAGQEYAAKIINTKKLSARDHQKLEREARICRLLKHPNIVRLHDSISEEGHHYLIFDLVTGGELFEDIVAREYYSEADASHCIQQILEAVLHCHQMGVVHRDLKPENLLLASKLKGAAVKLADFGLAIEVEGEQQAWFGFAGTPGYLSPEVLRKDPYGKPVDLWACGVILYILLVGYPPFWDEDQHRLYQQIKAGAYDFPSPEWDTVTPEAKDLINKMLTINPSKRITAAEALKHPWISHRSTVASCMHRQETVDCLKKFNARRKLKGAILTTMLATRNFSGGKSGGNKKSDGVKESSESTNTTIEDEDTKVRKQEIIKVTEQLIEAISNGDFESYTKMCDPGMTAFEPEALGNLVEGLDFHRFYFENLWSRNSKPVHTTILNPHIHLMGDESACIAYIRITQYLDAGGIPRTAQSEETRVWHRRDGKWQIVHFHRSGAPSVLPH
T1 sequence (Q05513 whole entry): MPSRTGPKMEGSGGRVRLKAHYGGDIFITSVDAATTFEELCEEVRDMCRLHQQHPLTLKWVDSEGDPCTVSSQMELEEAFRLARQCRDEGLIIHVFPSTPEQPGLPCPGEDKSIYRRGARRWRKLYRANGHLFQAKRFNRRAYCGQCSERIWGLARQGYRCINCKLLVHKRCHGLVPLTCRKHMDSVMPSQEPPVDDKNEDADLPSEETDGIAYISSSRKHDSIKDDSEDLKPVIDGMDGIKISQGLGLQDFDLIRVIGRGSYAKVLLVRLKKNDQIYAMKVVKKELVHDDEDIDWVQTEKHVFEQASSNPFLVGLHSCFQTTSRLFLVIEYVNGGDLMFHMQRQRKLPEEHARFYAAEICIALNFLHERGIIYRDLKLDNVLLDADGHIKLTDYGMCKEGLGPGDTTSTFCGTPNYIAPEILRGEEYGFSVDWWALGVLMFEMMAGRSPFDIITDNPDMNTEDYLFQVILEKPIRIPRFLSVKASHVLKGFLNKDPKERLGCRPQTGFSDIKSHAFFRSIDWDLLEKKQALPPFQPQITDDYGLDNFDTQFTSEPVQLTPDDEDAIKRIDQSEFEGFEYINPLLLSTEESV

CC(C)CCN[C@@H]1CCc2cc(O)c(N3CC(=O)NS3(=O)=O)c(F)c2C1 [AC484, ABBV-CLS-484]
> 10 µM: all assays above
